Experimental data from the NIST ThermoML archive (doi:10.1021/je900550v).
± gives the expanded uncertainty stated by the source.

Conditions: 101.33 kPa, Liquid; for speed of sound: Pulse-echo method; for mass density: Vibrating tube method

CC(C)C(=O)[O-].C[NH2+]CCO [2-hydroxy-N-methylethanaminium isobutyrate]
Conditions	mass density [kg/m3]	speed of sound [m/s]	viscosity [mPa·s]
278.15 K	1056.12 ± 2.2	1670.2 ± 2.2	–
278.4 K	1055.96 ± 2.2	1669.4 ± 2.2	–
278.65 K	1055.8 ± 2.2	1668.6 ± 2.2	–
278.9 K	1055.64 ± 2.2	1667.8 ± 2.2	–
279.15 K	1055.48 ± 2.2	1667 ± 2.2	–
279.4 K	1055.32 ± 2.2	1666.2 ± 2.2	–
279.65 K	1055.16 ± 2.2	1665.4 ± 2.1	–
279.9 K	1055 ± 2.2	1664.7 ± 2.1	–
280.15 K	1054.85 ± 2.2	1663.9 ± 2.1	–
280.4 K	1054.68 ± 2.2	1663.1 ± 2.1	–
280.65 K	1054.52 ± 2.2	1662.3 ± 2.1	–
280.9 K	1054.36 ± 2.2	1661.5 ± 2.1	–
281.15 K	1054.2 ± 2.2	1660.8 ± 2.1	–
281.4 K	1054.04 ± 2.2	1660 ± 2.1	–
281.65 K	1053.88 ± 2.2	1659.2 ± 2.1	–
281.9 K	1053.72 ± 2.2	1658.5 ± 2.1	–
282.15 K	1053.56 ± 2.2	1657.7 ± 2.1	–
282.4 K	1053.4 ± 2.2	1657 ± 2.1	–
282.65 K	1053.24 ± 2.2	1656.2 ± 2.1	–
282.9 K	1053.08 ± 2.2	1655.4 ± 2.1	–
283.15 K	1052.92 ± 2.2	1654.7 ± 2.1	–
283.4 K	1052.76 ± 2.2	1653.9 ± 2.1	–
283.65 K	1052.6 ± 2.2	1653.2 ± 2.1	–
283.9 K	1052.43 ± 2.2	1652.4 ± 2.1	–
284.15 K	1052.27 ± 2.2	1651.7 ± 2.1	–
284.4 K	1052.11 ± 2.2	1650.9 ± 2.1	–
284.65 K	1051.95 ± 2.2	1650.2 ± 2.1	–
284.9 K	1051.79 ± 2.2	1649.4 ± 2.1	–
285.15 K	1051.63 ± 2.2	1648.7 ± 2.1	–
285.4 K	1051.47 ± 2.2	1647.9 ± 2.1	–
285.65 K	1051.31 ± 2.2	1647.2 ± 2.1	–
285.9 K	1051.14 ± 2.2	1646.4 ± 2.1	–
286.15 K	1050.98 ± 2.2	1645.9 ± 2.1	–
286.4 K	1050.82 ± 2.2	1645.2 ± 2.1	–
286.65 K	1050.66 ± 2.2	1644.4 ± 2.1	–
286.9 K	1050.49 ± 2.2	1643.7 ± 2.1	–
287.15 K	1050.33 ± 2.2	1642.9 ± 2.1	–
287.4 K	1050.17 ± 2.2	1642.2 ± 2.1	–
287.65 K	1050.01 ± 2.2	1641.5 ± 2.1	–
287.9 K	1049.85 ± 2.2	1640.7 ± 2.1	–
288.15 K	1049.68 ± 2.2	1640 ± 2.1	301.35 ± 37
288.4 K	1049.52 ± 2.2	1639.3 ± 2.1	–
288.65 K	1049.36 ± 2.2	1638.5 ± 2.1	–
288.9 K	1049.19 ± 2.2	1637.8 ± 2.1	–
289.15 K	1049.03 ± 2.2	1637.1 ± 2.1	–
289.4 K	1048.87 ± 2.2	1636.3 ± 2.1	–
289.65 K	1048.72 ± 2.2	1635.6 ± 2.1	–
289.9 K	1048.56 ± 2.2	1634.9 ± 2.1	–
290.15 K	1048.41 ± 2.2	1634.2 ± 2.1	–
290.4 K	1048.25 ± 2.2	1633.4 ± 2.1	–
290.65 K	1048.09 ± 2.2	1632.7 ± 2.1	–
290.9 K	1047.94 ± 2.2	1632 ± 2.1	–
291.15 K	1047.79 ± 2.2	1631.2 ± 2.1	–
291.4 K	1047.63 ± 2.2	1630.5 ± 2.1	–
291.65 K	1047.47 ± 2.2	1629.8 ± 2.1	–
291.9 K	1047.31 ± 2.2	1629.1 ± 2.1	–
292.15 K	1047.16 ± 2.2	1628.4 ± 2.1	–
292.4 K	1047 ± 2.2	1627.7 ± 2.1	–
292.65 K	1046.84 ± 2.2	1626.9 ± 2.1	–
292.9 K	1046.68 ± 2.2	1626.2 ± 2.1	–
293.15 K	1046.53 ± 2.2	1625.5 ± 2.1	220.69 ± 23
293.4 K	1046.37 ± 2.2	1624.8 ± 2.1	–
293.65 K	1046.21 ± 2.2	1624.1 ± 2.1	–
293.9 K	1046.06 ± 2.2	1623.4 ± 2.1	–
294.15 K	1045.9 ± 2.2	1622.7 ± 2.1	–
294.4 K	1045.74 ± 2.2	1622 ± 2.1	–
294.65 K	1045.59 ± 2.2	1621.2 ± 2.1	–
294.9 K	1045.43 ± 2.2	1620.5 ± 2.1	–
295.15 K	1045.27 ± 2.2	1619.8 ± 2.1	–
295.4 K	1045.11 ± 2.2	1619.1 ± 2.1	–
295.65 K	1044.96 ± 2.2	1618.4 ± 2.1	–
295.9 K	1044.8 ± 2.2	1617.7 ± 2.1	–
296.15 K	1044.63 ± 2.2	1617 ± 2.1	–
296.4 K	1044.48 ± 2.2	1616.3 ± 2.1	–
296.65 K	1044.32 ± 2.2	1615.6 ± 2.1	–
296.9 K	1044.17 ± 2.2	1614.9 ± 2.1	–
297.15 K	1044.01 ± 2.2	1614.2 ± 2.1	–
297.4 K	1043.84 ± 2.2	1613.4 ± 2.1	–
297.65 K	1043.68 ± 2.2	1612.7 ± 2.1	–
297.9 K	1043.52 ± 2.2	1612 ± 2.1	–
298.15 K	1043.37 ± 2.2	1611.3 ± 2.1	163.08 ± 13
298.4 K	1043.2 ± 2.2	1610.6 ± 2.1	–
298.65 K	1043.05 ± 2.2	1609.9 ± 2.1	–
298.9 K	1042.89 ± 2.2	1609.2 ± 2.1	–
299.15 K	1042.73 ± 2.2	1608.5 ± 2.1	–
299.4 K	1042.57 ± 2.2	1607.8 ± 2.1	–
299.65 K	1042.41 ± 2.2	1607.1 ± 2.1	–
299.9 K	1042.25 ± 2.2	1606.3 ± 2.1	–
300.15 K	1042.09 ± 2.2	1605.6 ± 2.1	–
300.4 K	1041.93 ± 2.2	1604.9 ± 2.1	–
300.65 K	1041.77 ± 2.2	1604.2 ± 2.1	–
300.9 K	1041.61 ± 2.2	1603.5 ± 2.1	–
301.15 K	1041.45 ± 2.2	1602.8 ± 2.1	–
301.4 K	1041.29 ± 2.2	1602.1 ± 2.1	–
301.65 K	1041.13 ± 2.2	1601.4 ± 2.1	–
301.9 K	1040.96 ± 2.2	1600.7 ± 2.1	–
302.15 K	1040.81 ± 2.2	1600 ± 2.1	–
302.4 K	1040.64 ± 2.2	1599.3 ± 2.1	–
302.65 K	1040.49 ± 2.2	1598.6 ± 2.1	–
302.9 K	1040.32 ± 2.2	1597.8 ± 2.1	–
303.15 K	1040.17 ± 2.2	1597.2 ± 2.1	124.67 ± 8
303.4 K	1040 ± 2.2	1596.4 ± 2.1	–
303.65 K	1039.84 ± 2.2	1595.7 ± 2.1	–
303.9 K	1039.68 ± 2.2	1595 ± 2.1	–
304.15 K	1039.52 ± 2.2	1594.3 ± 2.1	–
304.4 K	1039.36 ± 2.2	1593.6 ± 2.1	–
304.65 K	1039.19 ± 2.2	1592.9 ± 2.1	–
304.91 K	1039.03 ± 2.2	1592.2 ± 2.1	–
305.15 K	1038.87 ± 2.2	1591.5 ± 2.1	–
305.4 K	1038.71 ± 2.2	1590.8 ± 2.1	–
305.65 K	1038.55 ± 2.2	1590.1 ± 2.1	–
305.9 K	1038.39 ± 2.2	1589.4 ± 2.1	–
306.15 K	1038.23 ± 2.2	1588.7 ± 2.1	–
306.4 K	1038.06 ± 2.2	1588 ± 2.1	–
306.65 K	1037.9 ± 2.2	1587.3 ± 2.1	–
306.9 K	1037.74 ± 2.2	1586.6 ± 2.1	–
307.15 K	1037.58 ± 2.2	1585.9 ± 2.1	–
307.4 K	1037.41 ± 2.2	1585.2 ± 2.1	–
307.65 K	1037.25 ± 2.2	1584.5 ± 2.1	–
307.9 K	1037.09 ± 2.2	1583.8 ± 2.1	–
308.15 K	–	–	98.28 ± 4.8
